Measurements reported in patent US5924973A, “Method of treating a disease process in a luminal structure” (The Trustees of Columbia University in the City of New York, priority 1996, dated 1999).
Several values for one entry are separate records, joined by “and”; a condition that tells them apart may be missing. Equal entries are not always repeated.

How the values were obtained:
[1] = Dual label excretion studies of 188Re-MAG3 and 99mTc-MAG3 in rats (urine, feces); format: in vivo; set-up: Excretion kinetics of ^188 Re-MAG3 in feces of rats, 2 h / Excretion kinetics of ^188 Re-MAG3 in feces of rats, 8 h / Excretion kinetics of ^188 Re-MAG3 in feces of rats, 10 h / Excretion kinetics of ^188 Re-MAG3 in feces of rats, 12 h / Excretion kinetics of ^188 Re-MAG3 in feces of rats, 24 h / Excretion kinetics of ^188 Re-MAG3 in feces of rats, 48 h / Excretion kinetics of ^188 Re-MAG3 in feces of rats, Total: unit not given here
From the text: Comparison of the Excretion of ^188 Re-MAG3 with ^99 mTc-MAG3 in rats
Dual Label Excretion Studies of ^188 Re-MAG3 and ^99m Tc-MAG3 in Rats

[2] = HPLC and ITLC evaluation of 188Re-MAG3 up to five hours after preparation; format: physicochemical; conditions: periods up to five hours after preparation
[3] = Biodistribution of 99mTc-MAG3 and 188Re-MAG3 in a dual label study, tail vein injection; format: in vivo, rats; conditions: ± standard deviation
From the text: Biodistribution Data for ^99m Tc-MAG3 and ^188 Re-MAG3 in a dual label study

[4] = 188Re-MAG3 stability study at high radioactivity levels (HPLC, TLC); format: physicochemical
Protocol: Stability-^188 Re-MAG3 Stability Study at High Radioactivity Levels
^188 Re-MAG3 was prepared using the protocol as described above however using 1 mL generator eluate to dissolve the contents of a commercial MAG3 Kit and addition of 1 mL of SnCl2 /citrate solution. The starting activity in 1 ml generator eluate was 1220 Mbq (33 mCi). Thus the concentration of citrate and stannous ions were maintained, however the concentration of the Kit contents in especially the Benzoyl-MAG3 precursor is reduced to half of the original protocol.
The stability was tested using HPLC-chromatography and also TLC as additional control.

[5] = Stability of 188Re-MAG3 in presence of Hypaque contrast agent; format: physicochemical
Protocol: Stability of ^188 Re-MAG3 in Presence of Hypaque Contrast Agent
^188 Re-MAG3 was prepared as in the upper case starting with an activity of 851 Mbq (23 mCi). After the End of Synthesis, QC via HPLC and TLC, 2 mL of a 50% Triazoate solution was added. Triazoate is known as Hypaque and is the 3,5-Bis(acetylamino)-2,4,6-triiodobenzoic acid sodium salt.

[6] = MIRD calculation of individual organ dose of released 188Re-MAG3; conditions: based on animal data and human 99mTc-MAG3 distribution
From the text: As alluded to previously, the probability of balloon rupture at nominal balloon inflation pressures are substantially less than one percent. Animal experiments and calculations of the individual organ dose received by a ^188 Re-MAG3 release have been done. Because the isotope is in solution, there would be no significant local arterial deposition. In fact, attempts to intentionally deposit soluble compounds in vessel walls for their pharmacological properties have been notoriously poor. The distribution and elimination of simultaneously injected ^99 mTc-MAG3 and ^188 Re-MAG3 in rats are identical. Based upon these findings Dr. Michael Stabin of the Oak Ridge Institute for Science and Education (ORISE) has calculated, based on the MIRD formalism, the individual organ dose of released ^188 Re-MAG3. The only organ receiving a dose of greater than 5 cGy would be the urinary bladder wall. This assumes spontaneous urination every 4-6 hours. […] Thus, release of the isotope upon balloon rupture would necessitate placing a bladder catheter until the urinary counts excreted return to background. Based on animal data, and on human ^99m Tc-MAG3 distribution this should occur in less than 12 hours.

[7] = 20 min after mixing with Hypaque
[8] = 80 min after mixing with Hypaque
[9] = 140 min after mixing with Hypaque
[10] = EOS - before addition of Hypaque

## O=C(O)C[N]1C(=O)C[N]2C(=O)C[N]3C(=O)C[S][188Re-]132=[O] [^188 Re-MAG3]
[1]; feces, 2 h, individual rats #1-4, 120 min
  Excretion kinetics of ^188 Re-MAG3 in feces of rats, 2 h: 0.03 and 1.50 and 0.01
[1]; feces, 4 h, individual rats #1-4
  Excretion kinetics of ^188 Re-MAG3 in feces of rats, 4 h: 0
[1]; feces, 6 h, individual rats #1-4
  Excretion kinetics of ^188 Re-MAG3 in feces of rats, 6 h: 0
[1]; feces, 8 h, individual rats #1-4, 480 min
  Excretion kinetics of ^188 Re-MAG3 in feces of rats, 8 h: 0.02 and 0 and 1.30 and 0.04
[1]; feces, 10 h, individual rats #1-4, 600 min
  Excretion kinetics of ^188 Re-MAG3 in feces of rats, 10 h: 0.41 and 3.79 and 1.79 and 1.67
[1]; feces, 12 h, individual rats #1-4, 720 min
  Excretion kinetics of ^188 Re-MAG3 in feces of rats, 12 h: 1.17 and 1.09 and 0 and 2.24
[1]; feces, 24 h, individual rats #1-4, 1440 min
  Excretion kinetics of ^188 Re-MAG3 in feces of rats, 24 h: 5.86 and 6.46 and 4.47 and 3.46
[1]; feces, 48 h, individual rats #1-4, 2880 min
  Excretion kinetics of ^188 Re-MAG3 in feces of rats, 48 h: 0.85 and 2.26 and 0.52 and 0.70
[1]; feces, Total, individual rats #1-4
  Excretion kinetics of ^188 Re-MAG3 in feces of rats, Total: 8.34 and 15.1 and 8.08 and 8.12
[1]; feces, Total, mean of 4 rats, S.D. on separate line
  Excretion kinetics of ^188 Re-MAG3 in feces of rats, Total, mean: 9.91
[1]; simultaneously injected in rats
  distribution and elimination, 99mTc-MAG3 versus 188Re-MAG3: identical
[1]; urine, 6 h, mean of 4 rats, S.D. on separate line
  Excretion kinetics of ^188 Re-MAG3 in urine of rats, 6 h, mean: 0.97
[1]; urine, 8 h, mean of 4 rats, S.D. on separate line
  Excretion kinetics of ^188 Re-MAG3 in urine of rats, 8 h, mean: 2.75
[1]; urine, 10 h, mean of 4 rats, S.D. on separate line
  Excretion kinetics of ^188 Re-MAG3 in urine of rats, 10 h, mean: 1.15
[1]; urine, 12 h, mean of 4 rats, S.D. on separate line
  Excretion kinetics of ^188 Re-MAG3 in urine of rats, 12 h, mean: 0.83
[1]; urine, 24 h, mean of 4 rats, S.D. on separate line
  Excretion kinetics of ^188 Re-MAG3 in urine of rats, 24 h, mean: 5.07
[1]; urine, 48 h, mean of 4 rats, S.D. on separate line
  Excretion kinetics of ^188 Re-MAG3 in urine of rats, 48 h, mean: 1.76
[1]; urine, Total, mean of 4 rats, S.D. on separate line
  Excretion kinetics of ^188 Re-MAG3 in urine of rats, Total, mean: 81.97
[2]
  stability by HPLC and ITLC: no decomposition or effects of radiolysis have been observed
[3]; 2 h
  Biodistribution of ^188 Re-MAG3, blood: 0.07 ± 0.01 % inj. dose/g tissue
  Biodistribution of ^188 Re-MAG3, bone: 0.09 ± 0.11 % inj. dose/g tissue
  Biodistribution of ^188 Re-MAG3, contents of l.i.: 0.87 ± 0.32 % inj. dose/g tissue
  Biodistribution of ^188 Re-MAG3, contents of s.i.: 1.97 ± 2.58 % inj. dose/g tissue
  Biodistribution of ^188 Re-MAG3, heart: 0.02 ± 0.03 % inj. dose/g tissue
  Biodistribution of ^188 Re-MAG3, kidneys: 0.12 ± 0.03 % inj. dose/g tissue
  Biodistribution of ^188 Re-MAG3, l. intestine: 0.06 ± 0.02 % inj. dose/g tissue
  Biodistribution of ^188 Re-MAG3, liver: 0.03 ± 0.01 % inj. dose/g tissue
  Biodistribution of ^188 Re-MAG3, lung: 0.05 ± 0.02 % inj. dose/g tissue
  Biodistribution of ^188 Re-MAG3, s. intestine: 0.06 ± 0.04 % inj. dose/g tissue
  Biodistribution of ^188 Re-MAG3, spleen: 0.03 ± 0.02 % inj. dose/g tissue
  Biodistribution of ^188 Re-MAG3, thyroid: 0.70 ± 0.49 % inj. dose/g tissue
[3]; 6 h
  Biodistribution of ^188 Re-MAG3, blood: 0.08 ± 0.02 % inj. dose/g tissue
  Biodistribution of ^188 Re-MAG3, bone: 0.01 ± 0.01 % inj. dose/g tissue
  Biodistribution of ^188 Re-MAG3, contents of l.i.: 1.42 ± 0.33 % inj. dose/g tissue
  Biodistribution of ^188 Re-MAG3, contents of s.i.: 0.06 ± 0.05 % inj. dose/g tissue
  Biodistribution of ^188 Re-MAG3, heart: 0.00 ± 0.00 % inj. dose/g tissue
  Biodistribution of ^188 Re-MAG3, kidneys: 0.11 ± 0.02 % inj. dose/g tissue
  Biodistribution of ^188 Re-MAG3, l. intestine: 0.13 ± 0.03 % inj. dose/g tissue
  Biodistribution of ^188 Re-MAG3, liver: 0.03 ± 0.00 % inj. dose/g tissue
  Biodistribution of ^188 Re-MAG3, lung: 0.02 ± 0.00 % inj. dose/g tissue
  Biodistribution of ^188 Re-MAG3, s. intestine: 0.01 ± 0.00 % inj. dose/g tissue
  Biodistribution of ^188 Re-MAG3, spleen: 0.00 ± 0.01 % inj. dose/g tissue
  Biodistribution of ^188 Re-MAG3, thyroid: 0.76 ± 0.42 % inj. dose/g tissue
[3]; 24 h
  Biodistribution of ^188 Re-MAG3, blood: 0.05 ± 0.02 % inj. dose/g tissue
  Biodistribution of ^188 Re-MAG3, bone: 0.04 ± 0.05 % inj. dose/g tissue
  Biodistribution of ^188 Re-MAG3, contents of l.i.: 0.05 ± 0.01 % inj. dose/g tissue
  Biodistribution of ^188 Re-MAG3, contents of s.i.: 0.02 ± 0.01 % inj. dose/g tissue
  Biodistribution of ^188 Re-MAG3, heart: 0.01 ± 0.00 % inj. dose/g tissue
  Biodistribution of ^188 Re-MAG3, kidneys: 0.07 ± 0.01 % inj. dose/g tissue
  Biodistribution of ^188 Re-MAG3, l. intestine: 0.02 ± 0.00 % inj. dose/g tissue
  Biodistribution of ^188 Re-MAG3, liver: 0.02 ± 0.00 % inj. dose/g tissue
  Biodistribution of ^188 Re-MAG3, lung: 0.01 ± 0.01 % inj. dose/g tissue
  Biodistribution of ^188 Re-MAG3, s. intestine: 0.01 ± 0.00 % inj. dose/g tissue
  Biodistribution of ^188 Re-MAG3, spleen: 0.02 ± 0.01 % inj. dose/g tissue
  Biodistribution of ^188 Re-MAG3, thyroid: 0.74 ± 0.76 % inj. dose/g tissue
[4]; 1 hour after EOS
  Stability, HPLC: 92.0%
[4]; 2 hours after EOS
  Stability, HPLC: 91.1%
[4]; 3 hours after EOS
  Stability, HPLC: 90.3%
[4]; 4 hours after EOS
  Stability, HPLC: 88.3%
[4]; 5 hours after EOS
  Stability, HPLC: 100.8%
[4]; 24 hours after EOS
  Stability, HPLC: 92.4%
  Stability, TLC: 93.4%
[4]; End of Synthesis (EOS)
  Stability, TLC: 97.3%
[4]; End of Synthesis (EOS), starting activity 1220 Mbq (33 mCi)
  Stability, HPLC: 97.3%
[5]; [7]
  Stability in presence of Hypaque, HPLC: > 90%
  Stability in presence of Hypaque, TLC: 94.4%
[5]; 50 min after mixing with Hypaque
  Stability in presence of Hypaque, TLC: 90.5%
[5]; [8]
  Stability in presence of Hypaque, HPLC: 86.6%
  Stability in presence of Hypaque, TLC: 87.7%
[5]; [9]
  Stability in presence of Hypaque, HPLC: 83.3%
  Stability in presence of Hypaque, TLC: 83.3%
[5]; [10]
  Stability in presence of Hypaque, HPLC: > 95%
  Stability in presence of Hypaque, RP-Sep-Pak: 98.3%
  Stability in presence of Hypaque, TLC: 97.6%
[5]; after mixing with Hypaque
  radioactive degradation product found: free perrhenate
[6]
  time until urinary counts excreted return to background: less than 12 hours
